Assay results published in ChEMBL document CHEMBL1201862, “PubChem BioAssay data set” (2004).
Each block holds one compound with its values, some of them ahead of it. The source made the active and inactive calls.

Tests used:
[1] = biological target: Heat shock protein HSP 90-alpha (Homo sapiens, UniProt P07900); format: functional, organism-based
Melanocortin receptor 4 = Melanocortin receptor 4 (Homo sapiens, UniProt P32245); assay: inhibitors of MC4R cAMP signaling – cell-based, TR-FRET, biased antagonists, dose response (AID 602298); format: functional;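 also: antagonist potency against agonist-stimulated cAMP production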
CAAX prenyl protease 2 = CAAX prenyl protease 2 (Homo sapiens, UniProt Q9Y256); assay: inhibition of Ras-converting CAAX protease Rce1 – biochemical, yeast membranes, quenched-peptide fluorescence, cherry-pick, dose response (AID 588849)
Chain of CAAX prenyl protease 2 (Q9Y256 whole entry): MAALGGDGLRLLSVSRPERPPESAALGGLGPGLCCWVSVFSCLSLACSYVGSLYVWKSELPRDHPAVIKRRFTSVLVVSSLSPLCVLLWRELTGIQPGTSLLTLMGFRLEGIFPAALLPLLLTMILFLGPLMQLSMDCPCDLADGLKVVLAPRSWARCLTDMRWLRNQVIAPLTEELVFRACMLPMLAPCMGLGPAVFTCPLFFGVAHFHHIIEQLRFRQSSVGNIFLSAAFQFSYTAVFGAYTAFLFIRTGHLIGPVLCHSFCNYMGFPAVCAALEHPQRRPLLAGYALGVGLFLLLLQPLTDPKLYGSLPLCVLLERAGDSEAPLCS

[2] = biological target: T1, Ubiquitin-conjugating enzyme E2 N (Homo sapiens, UniProt P61088); format: functional;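 also: Dose-response confirmation in a TR-FRET assay detecting UBC13-driven polyubiquitin chain formation, inhibition measured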
T1 sequence (P61088 whole entry): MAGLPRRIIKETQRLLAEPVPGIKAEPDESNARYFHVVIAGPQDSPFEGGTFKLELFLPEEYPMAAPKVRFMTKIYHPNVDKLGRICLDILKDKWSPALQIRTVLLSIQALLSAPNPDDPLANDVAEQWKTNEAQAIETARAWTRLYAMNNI

[3] = biological target: Dual specificity protein kinase CLK4 (Homo sapiens, UniProt Q9HAZ1); format: functional
[4] = biological target: Platelet-derived growth factor receptor alpha (Homo sapiens, UniProt P16234); assay: Navigating the Kinome. Panel member name: PDGFRA; format: functional
Chain of Platelet-derived growth factor receptor alpha (P16234 whole entry): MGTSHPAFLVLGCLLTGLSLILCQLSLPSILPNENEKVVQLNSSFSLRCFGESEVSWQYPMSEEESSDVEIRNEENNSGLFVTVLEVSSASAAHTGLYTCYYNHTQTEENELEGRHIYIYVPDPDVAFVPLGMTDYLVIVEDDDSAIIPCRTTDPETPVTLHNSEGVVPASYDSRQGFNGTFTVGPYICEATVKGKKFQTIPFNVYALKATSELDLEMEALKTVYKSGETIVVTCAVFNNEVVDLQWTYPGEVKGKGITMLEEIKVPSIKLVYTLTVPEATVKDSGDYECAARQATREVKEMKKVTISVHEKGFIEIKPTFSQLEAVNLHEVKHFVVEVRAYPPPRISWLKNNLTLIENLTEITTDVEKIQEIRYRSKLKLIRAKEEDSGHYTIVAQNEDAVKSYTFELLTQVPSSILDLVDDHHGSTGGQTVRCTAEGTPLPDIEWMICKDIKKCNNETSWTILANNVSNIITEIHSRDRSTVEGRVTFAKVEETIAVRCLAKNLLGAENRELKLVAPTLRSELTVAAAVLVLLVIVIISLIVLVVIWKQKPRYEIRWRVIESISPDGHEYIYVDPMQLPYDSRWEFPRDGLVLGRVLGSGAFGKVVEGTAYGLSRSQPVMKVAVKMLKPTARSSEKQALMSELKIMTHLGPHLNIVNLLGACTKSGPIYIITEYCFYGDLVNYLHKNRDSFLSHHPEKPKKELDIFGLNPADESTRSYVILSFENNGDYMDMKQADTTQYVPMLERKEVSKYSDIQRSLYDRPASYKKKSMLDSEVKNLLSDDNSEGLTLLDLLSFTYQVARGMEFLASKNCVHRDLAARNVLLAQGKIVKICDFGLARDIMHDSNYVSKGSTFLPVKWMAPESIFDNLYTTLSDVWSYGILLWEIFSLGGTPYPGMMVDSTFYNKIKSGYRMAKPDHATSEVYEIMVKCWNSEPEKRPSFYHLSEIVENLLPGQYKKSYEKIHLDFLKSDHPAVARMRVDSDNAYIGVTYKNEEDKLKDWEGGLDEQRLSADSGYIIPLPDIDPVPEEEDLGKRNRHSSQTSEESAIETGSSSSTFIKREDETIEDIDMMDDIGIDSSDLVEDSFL

[5] = biological target: Cyclin-dependent kinase 7 (Homo sapiens, UniProt P50613); format: functional;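 also: value comes from a kinome-wide kinase profiling panel in which CDK7 is one member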
Chain of Cyclin-dependent kinase 7 (P50613 whole entry): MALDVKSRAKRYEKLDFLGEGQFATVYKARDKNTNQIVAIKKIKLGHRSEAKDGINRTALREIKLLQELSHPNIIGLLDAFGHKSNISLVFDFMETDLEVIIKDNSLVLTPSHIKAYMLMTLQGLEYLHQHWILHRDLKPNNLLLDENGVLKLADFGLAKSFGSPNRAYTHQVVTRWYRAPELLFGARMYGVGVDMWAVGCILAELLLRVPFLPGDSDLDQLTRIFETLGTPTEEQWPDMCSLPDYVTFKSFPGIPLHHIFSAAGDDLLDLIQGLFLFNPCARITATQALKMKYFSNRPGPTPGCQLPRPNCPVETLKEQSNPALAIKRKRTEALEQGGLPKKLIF

[6] = biological target: Leukocyte tyrosine kinase receptor (Homo sapiens, UniProt P29376); assay: Navigating the Kinome. Panel member name: LTK; format: functional
[7] = biological target: Mitogen-activated protein kinase 14 (Homo sapiens, UniProt Q16539); format: functional;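 also: part of a kinome-wide panel, MAPK14 entry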
[8] = biological target: Dual specificity tyrosine-phosphorylation-regulated kinase 1A (Homo sapiens, UniProt Q13627); format: functional;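 also: measured against DYRK1A as one member of a broad kinome profiling panel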
[9] = biological target: Dual specificity tyrosine-phosphorylation-regulated kinase 4 (Homo sapiens, UniProt Q9NR20); format: functional
Chain of Dual specificity tyrosine-phosphorylation-regulated kinase 4 (Q9NR20 whole entry, canonical isoform): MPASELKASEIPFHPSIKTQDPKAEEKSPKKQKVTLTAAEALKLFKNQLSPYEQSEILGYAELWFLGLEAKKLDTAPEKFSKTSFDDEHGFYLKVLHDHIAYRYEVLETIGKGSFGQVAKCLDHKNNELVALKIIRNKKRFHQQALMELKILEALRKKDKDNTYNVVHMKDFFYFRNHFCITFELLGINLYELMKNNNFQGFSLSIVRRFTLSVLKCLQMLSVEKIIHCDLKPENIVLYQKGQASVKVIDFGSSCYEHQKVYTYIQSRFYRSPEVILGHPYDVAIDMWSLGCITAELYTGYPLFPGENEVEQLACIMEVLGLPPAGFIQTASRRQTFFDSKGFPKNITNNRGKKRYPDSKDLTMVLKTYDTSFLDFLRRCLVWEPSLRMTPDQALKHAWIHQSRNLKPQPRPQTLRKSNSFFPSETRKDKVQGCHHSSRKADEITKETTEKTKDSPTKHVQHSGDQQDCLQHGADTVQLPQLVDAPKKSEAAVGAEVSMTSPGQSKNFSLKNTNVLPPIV

[10] = biological target: Phosphorylase b kinase gamma catalytic chain, liver/testis isoform (Homo sapiens, UniProt P15735); format: functional;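 also: PHKG2 measured as one member of a kinome-wide kinase panel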
[11] = biological target: Inhibitor of nuclear factor kappa-B kinase subunit alpha (Homo sapiens, UniProt O15111); format: functional
[12] = biological target: Megakaryocyte-associated tyrosine-protein kinase (Homo sapiens, UniProt P42679); format: functional;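 also: affinity measured as one member of a kinase panel (Navigating the Kinome) against MATK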
[13] = biological target: Serine/threonine-protein kinase 3 (Homo sapiens, UniProt Q13188); format: functional;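 also: measured as one member of a kinome-wide kinase panel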
[14] = biological target: Homeodomain-interacting protein kinase 4 (Homo sapiens, UniProt Q8NE63); format: functional
[15] = biological target: Calcium/calmodulin-dependent protein kinase type 1 (Homo sapiens, UniProt Q14012); format: functional
[16] = biological target: Cyclin-dependent kinase 2 (Homo sapiens, UniProt P24941); format: functional;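 also: CDK2 measured as one member of a broad kinome profiling panel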
[17] = biological target: Serine/threonine-protein kinase PAK 1 (Homo sapiens, UniProt Q13153); format: functional
Chain of Serine/threonine-protein kinase PAK 1 (Q13153 whole entry): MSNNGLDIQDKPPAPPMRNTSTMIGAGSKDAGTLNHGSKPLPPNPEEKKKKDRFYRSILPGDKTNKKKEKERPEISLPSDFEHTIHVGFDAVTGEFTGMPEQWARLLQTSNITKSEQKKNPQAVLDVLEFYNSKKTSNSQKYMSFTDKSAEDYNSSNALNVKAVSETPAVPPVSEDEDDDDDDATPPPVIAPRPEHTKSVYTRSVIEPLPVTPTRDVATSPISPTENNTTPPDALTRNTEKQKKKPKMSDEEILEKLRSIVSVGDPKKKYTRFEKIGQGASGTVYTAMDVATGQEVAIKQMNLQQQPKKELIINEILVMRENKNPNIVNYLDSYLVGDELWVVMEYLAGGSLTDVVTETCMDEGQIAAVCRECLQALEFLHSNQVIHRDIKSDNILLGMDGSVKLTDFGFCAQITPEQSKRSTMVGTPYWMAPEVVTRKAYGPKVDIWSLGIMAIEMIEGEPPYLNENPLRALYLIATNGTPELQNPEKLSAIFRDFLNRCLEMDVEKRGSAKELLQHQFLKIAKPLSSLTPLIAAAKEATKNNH

[18] = biological target: Serine/threonine-protein kinase Nek4 (Homo sapiens, UniProt P51957); format: functional
Chain of Serine/threonine-protein kinase Nek4 (P51957 whole entry): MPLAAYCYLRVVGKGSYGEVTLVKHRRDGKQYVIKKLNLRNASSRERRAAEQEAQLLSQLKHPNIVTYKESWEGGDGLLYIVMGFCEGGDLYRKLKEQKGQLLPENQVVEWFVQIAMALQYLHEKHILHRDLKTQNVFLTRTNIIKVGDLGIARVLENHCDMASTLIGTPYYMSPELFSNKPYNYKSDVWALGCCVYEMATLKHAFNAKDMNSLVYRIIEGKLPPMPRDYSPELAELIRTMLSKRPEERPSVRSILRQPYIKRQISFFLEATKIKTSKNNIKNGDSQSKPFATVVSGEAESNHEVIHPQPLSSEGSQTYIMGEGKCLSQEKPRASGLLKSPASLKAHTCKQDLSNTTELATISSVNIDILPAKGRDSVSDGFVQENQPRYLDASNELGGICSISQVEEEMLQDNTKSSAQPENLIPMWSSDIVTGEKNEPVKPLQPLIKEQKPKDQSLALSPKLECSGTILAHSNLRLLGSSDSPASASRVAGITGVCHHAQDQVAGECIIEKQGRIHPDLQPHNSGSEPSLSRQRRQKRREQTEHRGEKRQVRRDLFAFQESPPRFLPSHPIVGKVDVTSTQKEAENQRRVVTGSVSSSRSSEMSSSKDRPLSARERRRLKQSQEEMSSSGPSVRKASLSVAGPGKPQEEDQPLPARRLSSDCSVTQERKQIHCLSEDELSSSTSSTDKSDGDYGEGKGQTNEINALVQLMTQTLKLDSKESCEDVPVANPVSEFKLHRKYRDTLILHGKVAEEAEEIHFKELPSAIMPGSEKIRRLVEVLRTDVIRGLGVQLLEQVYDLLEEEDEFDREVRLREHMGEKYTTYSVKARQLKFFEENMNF

[19] = biological target: Serine/threonine-protein kinase PLK1 (Homo sapiens, UniProt P53350); format: functional;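 also: PLK1 measured as one member of a kinome-wide profiling panel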
Misshapen-like kinase 1 = Misshapen-like kinase 1 (Homo sapiens, UniProt Q8N4C8); format: functional;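 also: kinome panel screen with MINK as the panel member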
[20] = biological target: Serine/threonine-protein kinase PLK4 (Homo sapiens, UniProt O00444); format: functional;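 also: PLK4 measured as one member of a kinome-wide kinase profiling panel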
[21] = biological target: Vascular endothelial growth factor receptor 3 (Homo sapiens, UniProt P35916); format: functional;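 also: value from a kinome-wide profiling panel, with FLT4 as the panel member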
Chain of Vascular endothelial growth factor receptor 3 (P35916 whole entry): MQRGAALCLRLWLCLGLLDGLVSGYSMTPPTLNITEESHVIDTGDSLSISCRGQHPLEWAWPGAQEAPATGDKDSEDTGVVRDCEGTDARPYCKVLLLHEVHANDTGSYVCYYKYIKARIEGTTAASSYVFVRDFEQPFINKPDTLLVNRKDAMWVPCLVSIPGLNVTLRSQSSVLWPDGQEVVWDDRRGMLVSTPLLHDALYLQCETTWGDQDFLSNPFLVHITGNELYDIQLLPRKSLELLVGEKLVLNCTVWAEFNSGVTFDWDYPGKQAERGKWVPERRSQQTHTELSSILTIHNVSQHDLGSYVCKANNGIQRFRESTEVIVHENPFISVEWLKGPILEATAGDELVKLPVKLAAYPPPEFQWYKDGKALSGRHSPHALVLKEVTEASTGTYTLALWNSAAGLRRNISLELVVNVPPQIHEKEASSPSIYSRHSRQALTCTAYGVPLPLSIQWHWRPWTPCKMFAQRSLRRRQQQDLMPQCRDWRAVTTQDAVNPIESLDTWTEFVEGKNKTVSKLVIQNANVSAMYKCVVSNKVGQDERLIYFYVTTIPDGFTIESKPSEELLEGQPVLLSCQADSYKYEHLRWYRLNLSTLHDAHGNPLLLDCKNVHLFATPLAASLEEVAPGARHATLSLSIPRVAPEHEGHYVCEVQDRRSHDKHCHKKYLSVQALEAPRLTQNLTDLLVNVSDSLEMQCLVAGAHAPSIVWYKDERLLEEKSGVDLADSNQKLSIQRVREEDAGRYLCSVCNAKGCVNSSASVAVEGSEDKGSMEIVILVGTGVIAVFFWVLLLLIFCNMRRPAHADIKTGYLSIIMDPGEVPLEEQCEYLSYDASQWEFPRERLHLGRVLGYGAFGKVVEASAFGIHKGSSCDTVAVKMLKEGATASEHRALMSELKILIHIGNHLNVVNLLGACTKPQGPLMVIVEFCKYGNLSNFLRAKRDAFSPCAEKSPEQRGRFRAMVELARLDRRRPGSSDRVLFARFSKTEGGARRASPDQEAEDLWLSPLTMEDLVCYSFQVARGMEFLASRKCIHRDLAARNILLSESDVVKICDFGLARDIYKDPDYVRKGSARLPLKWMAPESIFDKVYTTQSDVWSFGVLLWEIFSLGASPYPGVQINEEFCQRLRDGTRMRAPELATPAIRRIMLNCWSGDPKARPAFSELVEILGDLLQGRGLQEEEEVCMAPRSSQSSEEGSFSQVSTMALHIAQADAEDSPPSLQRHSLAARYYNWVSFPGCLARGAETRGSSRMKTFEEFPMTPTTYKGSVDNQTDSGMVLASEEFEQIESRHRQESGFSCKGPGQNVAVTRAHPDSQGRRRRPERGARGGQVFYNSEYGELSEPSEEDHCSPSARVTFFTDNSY

[22] = biological target: Interleukin-1 receptor-associated kinase 4 (Homo sapiens, UniProt Q9NWZ3); format: functional

SMILES: CCCCCCCCCCC[N+](C)(C)CC/C=C1/c2ccccc2Sc2ccc(Cl)cc21
- AC50 [1]: 6770 nM (active)
- IC50 (Melanocortin receptor 4): 24300 nM (inactive)
- AC50 (CAAX prenyl protease 2): 58400 nM (active)
- IC50 [2]: 4770 nM (active)

- Ki [3]: 63.1 nM (active)
- Ki [4]: > 2510 nM (inactive)
- Ki [5]: 2510 nM (active)
- Ki [6]: > 2510 nM (inactive)
- Ki [7]: > 3980 nM (inactive)
- Ki [8]: 100 nM (active)
SMILES: CCn1c(-c2nonc2N)nc2cncc(C(=O)N3CCC(N)C3)c21 (stereo not given)

SMILES: Cc1[nH]nc2ccc(-c3cncc(OCC(N)Cc4c[nH]c5ccccc45)c3)cc12 (stereo not given)
- Ki [9]: 251 nM (active)
- Ki [10]: 1000 nM (active)
- Ki [11]: 316 nM (active)
- Ki [12]: > 2000 nM (inactive)
- Ki [13]: 50.1 nM (active)
- Ki [14]: 501 nM (active)
- Ki [15]: > 7940 nM (inactive)
- Ki [16]: 50.1 nM (active)
- Ki [17]: 1260 nM (active)
- Ki [18]: 1000 nM (active)
- Ki [19]: > 7940 nM (inactive)
- Ki (Misshapen-like kinase 1): 20 nM (active)
- Ki [20]: > 3980 nM (inactive)
- Ki [21]: 1580 nM (active)
- Ki [22]: 794 nM (active)
